# Experimental data: patent US5036077A, “1-(benzylpiperidino)propan-2-ol derivatives, their preparation, their use as antimicrobial agents and the products in which they are present” (Sanofi, priority 1987, dated 1991)
# Tested on: Staphylococcus aureus CNCM 53154
# Assay: Minimum bactericidal concentration, 30 min contact, strain 1
# Assay type: cell-based
# Settings: CNCM53154, 0.5 h; Staphylococcus aureus CNCM 53154; contact time 30 minutes; solubilizing agent (water, TEG or acetone) given per product; read-out: MBC, strain 1
# Protocol: (§1) A bacterial inoculum is brought into contact with different dilutions of the test product for a limited time of 30 minutes. When the contact time has ended, an aliquot of the bacterial suspension/product mixture is deposited on the surface of a gelose culture medium containing an agent for neutralizing the antibacterial activity of the product. The bactericidal concentration chosen is the minimum concentration of the product which is necessary to prevent bacterial growth. This concentration is expressed in μg/ml.
# 1 - Staphylococcus aureus CNCM 53154;
# (§2) The strains are maintained on Tryptic Soy Agar (TSA) marketed by Difco.
# (§3) After 24 hours of culture at 37° C., the microbial growth is harvested with the aid of glass beads and 10 ml of diluent containing 1 g of tryptone and 8.5 g of sodium chloride in 1000 ml of distilled water. The suspension formed is shaken and the percentage transmission of light at 620 nm is measured on a spectrophotometer:
# (§4) The bacterial inoculum corresponds to a 1/20 dilution of this bacterial suspension.
# (§5) Plates containing cups receive different dilutions of the test product. These dilutions of the test product are brought into contact with the different bacterial suspensions using a multiple-site inoculator. After a contact time of 30 minutes, aliquots are transferred by means of this inoculator to the surface of a gelose medium (TSA) placed in petri dishes and containing an agent for neutralizing the activity, namely 20 g of lubrol W, 2.5 g of Tween 80, 2.5 g of sodium thiosulfate and 1% of egg yolk in 1000 ml of TSA (Difco). A reference for the efficacy of the neutralizing agent is prepared for each test product by depositing an aliquot of the dilution of the test product on the surface of the culture medium. After drying, the corresponding inoculum is deposited in the same place. A reference inoculum is prepared on a gelose medium with and without neutralizing agent. The results are read off after 48 hours of incubation at 37° C.
# (§6) They indicate the minimum bactericidal concentrations (MBC) for strains 1, 2, 3 and 4 and the minimum fungicidal concentrations (MFC) for strain 5.
row,SMILES,MBC [µg/mL]
1,OC(COc1cccc2ccccc12)CN1CCC(Cc2ccccc2)CC1 (racemic) [SR 44644 A],50
2,"Cl.OC(COc1ccc(Cl)cc1Cc1ccccc1)CN1CCC(Cc2ccccc2)CC1 (stereo not shown) [SR 44719 A, 3-(2-Benzyl-4-chlorophenoxy)-1-(4-benzylpiperidino)propan-2-ol hydrochloride]",10
3,OC(COc1ccc(F)cc1F)CN1CCC(Cc2ccccc2)CC1 (racemic) [SR 44971 A],1000
4,"OC(COc1ccc(Cl)cc1Cl)CN1CCC(Cc2ccccc2)CC1 (racemic) [SR 44333 B, 1-(4-Benzylpiperidino)-3-(2,4-dichlorophenoxy)propan-2-ol methanesulfonate]",50
5,OC(COc1ccc(-c2ccccc2)cc1)CN1CCC(Cc2ccccc2)CC1 (racemic) [SR 44715 A],50
6,OC(COc1cc(Cl)ccc1Oc1ccc(Cl)cc1Cl)CN1CCC(Cc2ccccc2)CC1 (racemic) [SR 44641 A],50
7,OC(COc1ccc(Br)cc1)CN1CCC(Cc2ccccc2)CC1 (racemic) [SR 44251 A],100
8,OC(COc1ccc(Cl)cc1)CN1CCC(Cc2ccccc2)CC1 (racemic) [SR 44334 A],500
9,"Cl.OC(CSc1ccc(Br)cc1)CN1CCC(Cc2ccccc2)CC1 (stereo not shown) [SR 44444 A, 1-(4-Benzylpiperidino)-3-(4-bromophenylthio)propan-2-ol hydrochloride]",50
10,OC(COc1ccccc1-c1ccccc1)CN1CCC(Cc2ccccc2)CC1 (racemic) [SR 44676 A],200
11,OC(COc1cc(Cl)c(Cl)cc1Cl)CN1CCC(Cc2ccccc2)CC1 (racemic) [SR 44560 A],10
12,"Cl.OC(COc1ccc(Cl)cc1Cl)CN1CCC(Cc2ccccc2)CC1 (stereo not shown) [SR 44333 A, 1-(4-Benzylpiperidino)-3-(2,4-dichlorophenoxy)propan-2-ol hydrochloride]",100
13,OC(COc1ccc(Cl)c(Cl)c1)CN1CCC(Cc2ccccc2)CC1 (racemic) [SR 45551 A],> 200

# Tested on: Streptococcus faecalis CNCM 5855
# Assay: Minimum bactericidal concentration, 30 min contact, strain 2
# Assay type: cell-based
# Settings: Enterococcus faecalis, CNCM5855, 0.5 h; Streptococcus faecalis CNCM 5855; contact time 30 minutes; solubilizing agent given per product; read-out: MBC, strain 2
# Protocol: as §1
# 2 - Streptococcus faecalis CNCM 5855;
# as §2, §3, §4, §5, §6
row,SMILES,MBC [µg/mL]
1,OC(COc1cccc2ccccc12)CN1CCC(Cc2ccccc2)CC1 (racemic) [SR 44644 A],50
2,"Cl.OC(COc1ccc(Cl)cc1Cc1ccccc1)CN1CCC(Cc2ccccc2)CC1 (stereo not shown) [SR 44719 A, 3-(2-Benzyl-4-chlorophenoxy)-1-(4-benzylpiperidino)propan-2-ol hydrochloride]",10
3,OC(COc1ccc(F)cc1F)CN1CCC(Cc2ccccc2)CC1 (racemic) [SR 44971 A],1000
4,"OC(COc1ccc(Cl)cc1Cl)CN1CCC(Cc2ccccc2)CC1 (racemic) [SR 44333 B, 1-(4-Benzylpiperidino)-3-(2,4-dichlorophenoxy)propan-2-ol methanesulfonate]",50
5,OC(COc1ccc(-c2ccccc2)cc1)CN1CCC(Cc2ccccc2)CC1 (racemic) [SR 44715 A],50
6,OC(COc1cc(Cl)ccc1Oc1ccc(Cl)cc1Cl)CN1CCC(Cc2ccccc2)CC1 (racemic) [SR 44641 A],10
7,OC(COc1ccc(Br)cc1)CN1CCC(Cc2ccccc2)CC1 (racemic) [SR 44251 A],100
8,OC(COc1ccc(Cl)cc1)CN1CCC(Cc2ccccc2)CC1 (racemic) [SR 44334 A],100
9,"Cl.OC(CSc1ccc(Br)cc1)CN1CCC(Cc2ccccc2)CC1 (stereo not shown) [SR 44444 A, 1-(4-Benzylpiperidino)-3-(4-bromophenylthio)propan-2-ol hydrochloride]",50
10,OC(COc1ccccc1-c1ccccc1)CN1CCC(Cc2ccccc2)CC1 (racemic) [SR 44676 A],50
11,OC(COc1cc(Cl)c(Cl)cc1Cl)CN1CCC(Cc2ccccc2)CC1 (racemic) [SR 44560 A],50
12,"Cl.OC(COc1ccc(Cl)cc1Cl)CN1CCC(Cc2ccccc2)CC1 (stereo not shown) [SR 44333 A, 1-(4-Benzylpiperidino)-3-(2,4-dichlorophenoxy)propan-2-ol hydrochloride]",100
13,OC(COc1ccc(Cl)c(Cl)c1)CN1CCC(Cc2ccccc2)CC1 (racemic) [SR 45551 A],50

# Tested on: Pseudomonas aeruginosa CNCM A22
# Assay: Minimum bactericidal concentration, 30 min contact, strain 3
# Assay type: cell-based
# Settings: CNCMA22, 0.5 h; Pseudomonas aeruginosa CNCM A22; contact time 30 minutes; solubilizing agent given per product; read-out: MBC, strain 3
# Protocol: as §1
# 3 - Pseudomonas aeruginosa CNCM A22;
# as §2, §3, §4, §5, §6
row,SMILES,MBC [µg/mL]
1,OC(COc1cccc2ccccc12)CN1CCC(Cc2ccccc2)CC1 (racemic) [SR 44644 A],50
2,"Cl.OC(COc1ccc(Cl)cc1Cc1ccccc1)CN1CCC(Cc2ccccc2)CC1 (stereo not shown) [SR 44719 A, 3-(2-Benzyl-4-chlorophenoxy)-1-(4-benzylpiperidino)propan-2-ol hydrochloride]",10
3,OC(COc1ccc(F)cc1F)CN1CCC(Cc2ccccc2)CC1 (racemic) [SR 44971 A],1000
4,"OC(COc1ccc(Cl)cc1Cl)CN1CCC(Cc2ccccc2)CC1 (racemic) [SR 44333 B, 1-(4-Benzylpiperidino)-3-(2,4-dichlorophenoxy)propan-2-ol methanesulfonate]",50
5,OC(COc1ccc(-c2ccccc2)cc1)CN1CCC(Cc2ccccc2)CC1 (racemic) [SR 44715 A],50
6,OC(COc1cc(Cl)ccc1Oc1ccc(Cl)cc1Cl)CN1CCC(Cc2ccccc2)CC1 (racemic) [SR 44641 A],10
7,OC(COc1ccc(Br)cc1)CN1CCC(Cc2ccccc2)CC1 (racemic) [SR 44251 A],100
8,OC(COc1ccc(Cl)cc1)CN1CCC(Cc2ccccc2)CC1 (racemic) [SR 44334 A],100
9,"Cl.OC(CSc1ccc(Br)cc1)CN1CCC(Cc2ccccc2)CC1 (stereo not shown) [SR 44444 A, 1-(4-Benzylpiperidino)-3-(4-bromophenylthio)propan-2-ol hydrochloride]",50
10,OC(COc1ccccc1-c1ccccc1)CN1CCC(Cc2ccccc2)CC1 (racemic) [SR 44676 A],10
11,OC(COc1cc(Cl)c(Cl)cc1Cl)CN1CCC(Cc2ccccc2)CC1 (racemic) [SR 44560 A],50
12,"Cl.OC(COc1ccc(Cl)cc1Cl)CN1CCC(Cc2ccccc2)CC1 (stereo not shown) [SR 44333 A, 1-(4-Benzylpiperidino)-3-(2,4-dichlorophenoxy)propan-2-ol hydrochloride]",50
13,OC(COc1ccc(Cl)c(Cl)c1)CN1CCC(Cc2ccccc2)CC1 (racemic) [SR 45551 A],50

# Tested on: Escherichia coli CNCM 54127
# Assay: Minimum bactericidal concentration, 30 min contact, strain 4
# Assay type: cell-based
# Settings: CNCM54127, 0.5 h; Escherichia coli CNCM 54127; contact time 30 minutes; solubilizing agent given per product; read-out: MBC, strain 4
# Protocol: as §1
# 4 - Escherichia coli CNCM 54127.
# as §2, §3, §4, §5, §6
row,SMILES,MBC [µg/mL]
1,OC(COc1cccc2ccccc12)CN1CCC(Cc2ccccc2)CC1 (racemic) [SR 44644 A],50
2,"Cl.OC(COc1ccc(Cl)cc1Cc1ccccc1)CN1CCC(Cc2ccccc2)CC1 (stereo not shown) [SR 44719 A, 3-(2-Benzyl-4-chlorophenoxy)-1-(4-benzylpiperidino)propan-2-ol hydrochloride]",5
3,OC(COc1ccc(F)cc1F)CN1CCC(Cc2ccccc2)CC1 (racemic) [SR 44971 A],1000
4,"OC(COc1ccc(Cl)cc1Cl)CN1CCC(Cc2ccccc2)CC1 (racemic) [SR 44333 B, 1-(4-Benzylpiperidino)-3-(2,4-dichlorophenoxy)propan-2-ol methanesulfonate]",50
5,OC(COc1ccc(-c2ccccc2)cc1)CN1CCC(Cc2ccccc2)CC1 (racemic) [SR 44715 A],50
6,OC(COc1cc(Cl)ccc1Oc1ccc(Cl)cc1Cl)CN1CCC(Cc2ccccc2)CC1 (racemic) [SR 44641 A],5
7,OC(COc1ccc(Br)cc1)CN1CCC(Cc2ccccc2)CC1 (racemic) [SR 44251 A],100
8,OC(COc1ccc(Cl)cc1)CN1CCC(Cc2ccccc2)CC1 (racemic) [SR 44334 A],100
9,"Cl.OC(CSc1ccc(Br)cc1)CN1CCC(Cc2ccccc2)CC1 (stereo not shown) [SR 44444 A, 1-(4-Benzylpiperidino)-3-(4-bromophenylthio)propan-2-ol hydrochloride]",50
10,OC(COc1ccccc1-c1ccccc1)CN1CCC(Cc2ccccc2)CC1 (racemic) [SR 44676 A],10
11,OC(COc1cc(Cl)c(Cl)cc1Cl)CN1CCC(Cc2ccccc2)CC1 (racemic) [SR 44560 A],5
12,"Cl.OC(COc1ccc(Cl)cc1Cl)CN1CCC(Cc2ccccc2)CC1 (stereo not shown) [SR 44333 A, 1-(4-Benzylpiperidino)-3-(2,4-dichlorophenoxy)propan-2-ol hydrochloride]",50
13,OC(COc1ccc(Cl)c(Cl)c1)CN1CCC(Cc2ccccc2)CC1 (racemic) [SR 45551 A],50

# Tested on: Candida albicans CNCM 1180
# Assay: Minimum fungicidal concentration, strain 5
# Assay type: cell-based
# Settings: CNCM1180, 0.5 h; Candida albicans CNCM 1180; contact time 30 minutes; solubilizing agent given per product; read-out: MFC, strain 5
# Protocol: as §1, §5
# The antifungal activity of the products according to the invention was also determined using the method described above. The representative strain of yeast selected for the study was Candida albicans CNCM 1180 (strain 5).
# This is maintained on a gelose medium of Sabouraud Dextrose Agar, marketed by Difco. The technique is identical to that described for studying the antibacterial activity. After 48 hours of culture at 37° C., the microbial growth is harvested with the aid of glass beads and 5 ml of diluent containing 1 g of tryptone and 8.5 g of sodium chloride in 1000 ml of distilled water; a further 5 ml of the diluent are then added. In a spectrophotometer, this suspension gives a 2 to 3% transmission of light at 620 nm. The inoculum corresponds to a 1/10 dilution of this microbial suspension. A 1/100 dilution of this suspension, observed between a microscope slide and cover slip through a lens of magnification 40, should show 10 cells per field, which corresponds to 1 000 000 yeasts per ml.
# as §6
row,SMILES,MFC [µg/mL]
1,OC(COc1cccc2ccccc12)CN1CCC(Cc2ccccc2)CC1 (racemic) [SR 44644 A],50
2,"Cl.OC(COc1ccc(Cl)cc1Cc1ccccc1)CN1CCC(Cc2ccccc2)CC1 (stereo not shown) [SR 44719 A, 3-(2-Benzyl-4-chlorophenoxy)-1-(4-benzylpiperidino)propan-2-ol hydrochloride]",50
3,OC(COc1ccc(F)cc1F)CN1CCC(Cc2ccccc2)CC1 (racemic) [SR 44971 A],1000
4,"OC(COc1ccc(Cl)cc1Cl)CN1CCC(Cc2ccccc2)CC1 (racemic) [SR 44333 B, 1-(4-Benzylpiperidino)-3-(2,4-dichlorophenoxy)propan-2-ol methanesulfonate]",50
5,OC(COc1ccc(-c2ccccc2)cc1)CN1CCC(Cc2ccccc2)CC1 (racemic) [SR 44715 A],200
6,OC(COc1cc(Cl)ccc1Oc1ccc(Cl)cc1Cl)CN1CCC(Cc2ccccc2)CC1 (racemic) [SR 44641 A],50
7,OC(COc1ccccc1-c1ccccc1)CN1CCC(Cc2ccccc2)CC1 (racemic) [SR 44676 A],50
8,OC(COc1cc(Cl)c(Cl)cc1Cl)CN1CCC(Cc2ccccc2)CC1 (racemic) [SR 44560 A],50
9,OC(COc1ccc(Cl)c(Cl)c1)CN1CCC(Cc2ccccc2)CC1 (racemic) [SR 45551 A],> 200
